Results on 15 compounds are retold here after patent US20210253557A1, “SUBSTITUTED TRIAZOLE DERIVATIVES AND USES THEREOF” (Bayer Pharma Aktiengesellschaft, priority 2017, published 2021).

SMILES strings stand for the structures. Structures can show the parent of a compound that is named as a salt.

In assay [1] the target is T1, human V1a receptor (Homo sapiens, UniProt P37288).
T1 construct: expressed in transfected cells; host or cells: CHO K1 (ATCC), also stably transfected with a modified aequorin
Description: Cellular in vitro assay for determining vasopressin receptor activity (V1a, aequorin luminescence). The format is cell-based. Particulars: for IC50: CHO cell line transfected with the human V1a receptor, [Arg8]-vasopressin at EC50 concentration, read-out: IC50 hV1a; for ratio IC50 hV2/hV1a: selectivity ratio of IC50 hV2 to IC50 hV1a.

Assay [2] addresses T2, human V2 receptor (Homo sapiens, UniProt P30518).
T2 construct: expressed in transfected cells; host or cells: CHO K1 (ATCC) expressing firefly luciferase under a CRE-responsive promoter
The assay is described as follows: Cellular in vitro assay for determining vasopressin receptor activity (V2, CRE-luciferase). The class given is cell-based. Particulars: CHO cell line transfected with the human V2 receptor; [Arg8]-vasopressin at EC50 concentration; read-out: IC50 hV2. Put shortly:
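Antagonism was measured as inhibition of a 3-h, EC50-level [Arg8]-vasopressin stimulation, with compounds tested at several concentrations, yielding IC50 values. The read-out was cAMP-driven CRE-luciferase luminescence after lysis, in recombinant CHO K1 cells carrying human V2 receptor. Cells were seeded in 2% FCS DMEM/F12 one day earlier.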

T1 sequence (P37288 whole entry): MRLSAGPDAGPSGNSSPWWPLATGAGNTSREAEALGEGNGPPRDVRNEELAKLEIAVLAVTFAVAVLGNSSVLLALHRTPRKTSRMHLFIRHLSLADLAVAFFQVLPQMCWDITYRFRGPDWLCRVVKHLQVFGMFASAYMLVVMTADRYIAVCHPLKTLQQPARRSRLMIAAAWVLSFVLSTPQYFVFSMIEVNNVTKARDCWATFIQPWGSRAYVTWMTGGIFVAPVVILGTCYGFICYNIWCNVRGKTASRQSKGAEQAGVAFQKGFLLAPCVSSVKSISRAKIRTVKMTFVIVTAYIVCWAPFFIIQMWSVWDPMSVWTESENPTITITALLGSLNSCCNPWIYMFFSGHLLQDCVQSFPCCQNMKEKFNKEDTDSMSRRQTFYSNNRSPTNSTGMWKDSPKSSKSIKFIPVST
T2 sequence (P30518 whole entry): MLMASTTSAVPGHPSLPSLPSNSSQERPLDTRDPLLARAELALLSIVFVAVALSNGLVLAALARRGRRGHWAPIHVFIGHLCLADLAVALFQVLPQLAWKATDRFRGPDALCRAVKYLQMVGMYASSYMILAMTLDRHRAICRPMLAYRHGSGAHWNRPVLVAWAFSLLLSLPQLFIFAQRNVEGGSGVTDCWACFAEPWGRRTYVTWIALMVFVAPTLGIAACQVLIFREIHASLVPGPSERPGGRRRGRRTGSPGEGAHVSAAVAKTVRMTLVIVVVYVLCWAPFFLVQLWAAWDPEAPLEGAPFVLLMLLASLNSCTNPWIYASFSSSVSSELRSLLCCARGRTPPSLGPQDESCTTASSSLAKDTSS

Turning to `O=C(NC(CO)c1nc(Cn2nc(-c3ccc(Cl)cc3)n(C[C@H](O)C(F)(F)F)c2=O)nn1-c1ccccc1Cl)C(F)(F)F` (mixture of isomers) [Example 95, N-{1-[1-(2-Chlorophenyl)-3-({3-(4-chlorophenyl)-5-oxo-4-[(2S)-3,3,3-trifluoro-2-hydroxypropyl]-4,5-dihydro-1H-1,2,4-triazol-1-yl}methyl)-1H-1,2,4-triazol-5-yl]-2-hydroxyethyl}-2,2,2-trifluoroacetamide], in assay [1], the IC50 came out at 2.1 nM and the “ratio IC50 hV2/hV1a” value stood at 8.6. Moreover, the IC50 in assay [2] was 18 nM.
Take `CC(N)c1nc(Cn2nc(-c3ccc(Cl)cc3)n(C[C@H](O)C(F)(F)F)c2=O)nn1-c1ncccn1` (mixture of isomers) [Example 128, 2-({5-[1-Aminoethyl]-1-(pyrimidin-2-yl)-1H-1,2,4-triazol-3-yl}methyl)-5-(4-chlorophenyl)-4-[(2S)-3,3,3-trifluoro-2-hydroxypropyl]-2,4-dihydro-3H-1,2,4-triazol-3-one hydrochloride]: in assay [1], the IC50 was found to be 94.5 nM and the “ratio IC50 hV2/hV1a” value turned out to be 22.8. Further, the IC50 in assay [2] came out at 2150 nM.
For `COc1ccccc1-n1nc(Cn2nc(-c3ccc(Cl)cc3)n(C[C@H](O)C(F)(F)F)c2=O)nc1C(C)OC(N)=O` (single isomer, unassigned) [Example 41], in that order: 2.01 nM, 4.8 and 9.69 nM.
In the same order, the values of `C[C@@H](OC(N)=O)c1nc(Cn2nc(-c3ccc(Cl)cc3)n(C[C@H](O)C(F)(F)F)c2=O)nn1-c1cccc(Cl)c1` [Example 36, (1R)-1-[1-(3-Chlorophenyl)-3-({3-(4-chlorophenyl)-5-oxo-4-[(2S)-3,3,3-trifluoro-2-hydroxypropyl]-4,5-dihydro-1H-1,2,4-triazol-1-yl}methyl)-1H-1,2,4-triazol-5-yl]ethyl Carbamate] are 28.6 nM, 0.1 and 1.81 nM.
For `C[C@H](OC(N)=O)c1nc(Cn2nc(-c3ccc(Cl)cc3)n(C[C@H](O)C(F)(F)F)c2=O)nn1-c1ccccc1OC(F)(F)F` [Example 7, (1S)-1-{3-({3-(4-Chlorophenyl)-5-oxo-4-[(2S)-3,3,3-trifluoro-2-hydroxypropyl]-4,5-dihydro-1H-1,2,4-triazol-1-yl}methyl)-1-[2-(trifluoromethoxy)phenyl]-1H-1,2,4-triazol-5-yl}ethyl Carbamate], in assay [1], the IC50 was 3.6 nM and the “ratio IC50 hV2/hV1a” value came out at 7.4. Besides, the IC50 in assay [2] turned out to be 26.7 nM.
Regarding `CNC(=O)OCc1nc(Cn2nc(-c3ccc(Cl)cc3)n(C[C@H](O)C(F)(F)F)c2=O)nn1-c1cccc(F)c1` [Example 46, [3-({3-(4-Chlorophenyl)-5-oxo-4-[(2S)-3,3,3-trifluoro-2-hydroxypropyl]-4,5-dihydro-1H-1,2,4-triazol-1-yl}methyl)-1-(3-fluorophenyl)-1H-1,2,4-triazol-5-yl]methyl Methylcarbamate], the IC50 in assay [1] turned out to be 6.47 nM; in assay [2] it was 9.36 nM. Besides, in assay [1], the “ratio IC50 hV2/hV1a” value came to 1.5.
For `O=C1NC(c2nc(Cn3nc(-c4ccc(Cl)cc4)n(C[C@H](O)C(F)(F)F)c3=O)nn2-c2ncccc2Cl)CO1` (single isomer, unassigned) [Example 113], in that order: 5.8 nM, 134 nM and 23.1.
In the same order, the values of `CC(=O)NC(CO)c1nc(Cn2nc(-c3ccc(Cl)cc3)n(C[C@H](O)C(F)(F)F)c2=O)nn1-c1ncccc1OC(F)(F)F` (single isomer, unassigned) [Example 122] are 6.35 nM, 280 nM and 44.1.
As for `CC(=O)NC(CO)c1nc(Cn2nc(-c3ccc(Cl)cc3)n(C[C@H](O)C(F)(F)F)c2=O)nn1-c1ccccc1Cl` (mixture of isomers) [Example 91, N-{1-[1-(2-Chlorophenyl)-3-({3-(4-chlorophenyl)-5-oxo-4-[(2S)-3,3,3-trifluoro-2-hydroxypropyl]-4,5-dihydro-1H-1,2,4-triazol-1-yl}methyl)-1H-1,2,4-triazol-5-yl]-2-hydroxyethyl}acetamide], in assay [1], the IC50 is 0.71 nM and the “ratio IC50 hV2/hV1a” value was 12.5. The IC50 in assay [2] came to 8.9 nM.
In the case of `CC(N)c1nc(Cn2nc(-c3ccc(Cl)cc3)n(C[C@H](O)C(F)(F)F)c2=O)nn1-c1ccccc1Cl` (mixture of isomers) [Example 60, 2-({5-[1-Aminoethyl]-1-(2-chlorophenyl)-1H-1,2,4-triazol-3-yl}methyl)-5-(4-chlorophenyl)-4-[(2S)-3,3,3-trifluoro-2-hydroxypropyl]-2,4-dihydro-3H-1,2,4-triazol-3-one trifluoroacetate], in assay [1], the IC50 worked out at 0.74 nM and the “ratio IC50 hV2/hV1a” value was 4.3. For the same compound, in assay [2], the IC50 worked out at 3.17 nM.
For `O=C1NC(c2nc(Cn3nc(-c4ccc(Cl)cc4)n(C[C@H](O)C(F)(F)F)c3=O)nn2-c2ncccc2Cl)CO1` (single isomer, unassigned) [Example 114], in assay [1], the IC50 came to 22.7 nM and the “ratio IC50 hV2/hV1a” value worked out at 23.2. Further, in assay [2], the IC50 stood at 525 nM.
Take `C[C@H](OC(N)=O)c1nc(Cn2nc(-c3ccc(Cl)cc3)n(C[C@H](O)C(F)(F)F)c2=O)nn1-c1ccccn1` [Example 10, (1S)-1-[3-({3-(4-Chlorophenyl)-5-oxo-4-[(2S)-3,3,3-trifluoro-2-hydroxypropyl]-4,5-dihydro-1H-1,2,4-triazol-1-yl}methyl)-1-(pyridin-2-yl)-1H-1,2,4-triazol-5-yl]ethyl Carbamate]: in assay [1], the IC50 worked out at 52.5 nM and the “ratio IC50 hV2/hV1a” value was determined as 2.0. The IC50 in assay [2] is 105 nM.
On to `O=C1NC(c2nc(Cn3nc(-c4ccc(Cl)cc4)n(C[C@H](O)C(F)(F)F)c3=O)nn2-c2ncccc2OC(F)(F)F)CO1` (mixture of isomers) [Example 117, 5-(4-Chlorophenyl)-2-({5-[2-oxo-1,3-oxazolidin-4-yl]-1-[3-(trifluoromethoxy)pyridin-2-yl]-1H-1,2,4-triazol-3-yl}methyl)-4-[(2S)-3,3,3-trifluoro-2-hydroxypropyl]-2,4-dihydro-3H-1,2,4-triazol-3-one], for which, in assay [1], the IC50 was determined as 21.5 nM and the “ratio IC50 hV2/hV1a” value was 21.9. Moreover, the IC50 in assay [2] turned out to be 470 nM.
With `CN1C(=O)CCC1c1nc(Cn2nc(-c3ccc(Cl)cc3)n(C[C@H](O)C(F)(F)F)c2=O)nn1-c1ccccc1Cl` (single isomer, unassigned) [Example 72], in assay [1], the IC50 stood at 0.67 nM and the “ratio IC50 hV2/hV1a” value was determined as 9.9. In addition, the IC50 in assay [2] was 6.63 nM.
In the same order, the values of `CS(=O)(=O)NC1(c2nc(Cn3nc(-c4ccc(Cl)cc4)n(C[C@H](O)C(F)(F)F)c3=O)nn2-c2ccccc2Cl)CC1` [Example 78, N-{1-[1-(2-Chlorophenyl)-3-({3-(4-chlorophenyl)-5-oxo-4-[(2S)-3,3,3-trifluoro-2-hydroxypropyl]-4,5-dihydro-1H-1,2,4-triazol-1-yl}methyl)-1H-1,2,4-triazol-5-yl]cyclopropyl}methane sulfonamide] are 1.1 nM, 8.8 and 9.7 nM.
